Experimental data published in patent US10280184B2, “Heterocyclic kinase inhibitors” (AbbVie Inc., priority 2014, dated 2019).
Counter-ions that a name gives are not always drawn.

biological target: BTK (Homo sapiens (Human), UniProt Q06187); assay: In vitro BTK kinase activity measured by trFRET; type: biochemical; settings: recombinant human catalytic domain (aa 393-659), 0.01 mM ATP; read-out: Btk enzyme IC50
Procedure: In Vitro BTK Kinase Activity Measured by Time-Resolved Fluorescence Resonance Energy Transfer (trFRET)
The in-house BTK corresponds to recombinant human catalytic domain (aa 393-659), which was expressed in SF9 cells with an N-terminal his tag and purified by immobilized metal affinity chromatography. BTK was mixed with peptide substrate (biotin-TYR1, Sequence: Biotin-(Ahx)-GAEEEIYAAFFA-COOH, 0.4 μM final) at varying inhibitor concentrations in reaction buffer: 50 mM MOPSO pH 6.5, 10 mM MgCl2, 2 mM MnCl2, 2.5 mM DTT, 0.01% BSA, 0.1 mM Na3VO4 and 0.01 mM ATP. After about 60 min incubation at rt, the reaction was quenched by addition of EDTA (final concentration: 100 mM) and developed by addition of detection reagents (final approximate concentrations: 30 mM HEPES pH 7.0, 0.06% BSA, 0.006% Tween-20, 0.24 M KF, 80 ng/mL PT66K (europium labeled anti-phosphotyrosine antibody cat #61T66KLB Cisbio, Bedford, Mass.) and 0.6 μg/mL SAXL (Phycolink streptavidin-allophycocyanin acceptor, cat #PJ25S, Prozyme, San Leandro, Calif.). The developed reaction was incubated in the dark for about 60 min at rt, then read via a time-resolved fluorescence detector (Rubystar, BMG) using a 337 nm laser for excitation and monitoring emission wavelength at 665 nm. Within the linear range of the assay, the observed signal at 665 nm was directly related to phosphorylated product and can be used to calculate the IC50 values.

Sequence of BTK (Q06187 393-659): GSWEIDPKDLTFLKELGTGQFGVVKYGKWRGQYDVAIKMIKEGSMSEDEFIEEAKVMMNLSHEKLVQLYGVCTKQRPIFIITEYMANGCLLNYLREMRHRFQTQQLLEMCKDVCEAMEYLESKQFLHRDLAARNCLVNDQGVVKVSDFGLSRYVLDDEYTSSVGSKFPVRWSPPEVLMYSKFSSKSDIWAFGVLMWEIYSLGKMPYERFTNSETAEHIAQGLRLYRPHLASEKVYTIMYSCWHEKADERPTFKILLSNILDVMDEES

Compound | IC50
C=CC(=O)NCc1cccc(-c2cn3ncnc3c(Nc3ccc(N4CCOCC4)cc3)n2)c1 [C.1.1] | 1000 to 50000 nM
C=CC(=O)N1CC(c2cc(Nc3cc4n(n3)CCOC4)c3ncnn3c2)C1 [F.1.42] | < 100 nM
C=CC(=O)N1CCC(c2cc(Nc3ccn(C)n3)c3ncnn3c2)C1 (stereo not shown) [Example 1, 1-(3-(8-((1-methyl-1H-pyrazol-3-yl)amino)-[1,2,4]triazolo[1,5-a]pyridin-6-yl)pyrrolidin-1-yl)prop-2-en-1-one] | < 100 nM
C=CC(=O)N1CCC(c2cn3ncnc3c(Nc3ccc4c(c3)NC(=O)CCC4)n2)C1 (stereo not shown) [F.1, 8-((6-(1-acryloylpyrrolidin-3-yl)-[1,2,4]triazolo[1,5-a]pyrazin-8-yl)amino)-4,5-dihydro-1H-benzo[b]azepin-2(3H)-one] | < 100 nM
C=CC(=O)N1CCC(c2cn3ncnc3c(NC)n2)C1 (stereo not shown) [F.1.16, 1-(3-(8-(methylamino)-[1,2,4]triazolo[1,5-a]pyrazin-6-yl)pyrrolidin-1-yl)prop-2-en-1-one] | 1000 to 50000 nM
C=CC(=O)N[C@H]1CC[C@@H](c2cc(Nc3ccn(C)n3)c3ncnn3c2)C1 [Example F1.34] | 100 to 1000 nM
C=CS(=O)(=O)N1CC[C@H](c2cn3ncnc3c(Nc3ccc(OC)c(OC)c3)n2)C1 (single isomer, unassigned) [H.1] | < 100 nM
C=CC(=O)N1CCC[C@@H](c2cc(Nc3cc4n(n3)CCN(C)C4)c3ncnn3c2)C1 [F.1.40] | < 100 nM
C=CC(=O)N1CC[C@@H](c2cn3ccnc3c(Nc3ccc4c(c3)NC(=O)CCC4)n2)C1 [F.1.9, (R)-8-((6-(1-acryloylpyrrolidin-3-yl)imidazo[1,2-a]pyrazin-8-yl)amino)-4,5-dihydro-1H-benzo[b]azepin-2(3H)-one] | < 100 nM
C=CC(=O)N1CCC(c2cc(Nc3ccc(OC)nn3)c3ncnn3c2)C1 (stereo not shown) [Example 2, 1-(3-(8-(6-Methoxypyridazin-3-ylamino)-[1,2,4]triazolo[1,5-a]pyridin-6-yl)pyrrolidin-1-yl)prop-2-en-1-one trifluoroacetate] | 100 to 1000 nM
C=CC(=O)N1CC[C@@H](c2cc(Nc3cc4n(n3)CCOC4)c3ncnn3c2)C1 [Example F1.33, (S)-1-(3-(8-((6,7-dihydro-4H-pyrazolo[5,1-c][1,4]oxazin-2-yl)amino)-[1,2,4]triazolo[1,5-a]pyridin-6-yl)pyrrolidin-1-yl)prop-2-en-1-one] | 1000 to 50000 nM
C=CC(=O)N1CCC(c2cn3ncnc3c(Nc3ccc(N4CCOCC4)nc3)n2)C1 (stereo not shown) [F.1.19, 1-(3-(8-((6-morpholinopyridin-3-yl)amino)-[1,2,4]triazolo[1,5-a]pyrazin-6-yl)pyrrolidin-1-yl)prop-2-en-1-one] | 100 to 1000 nM
C=CC(=O)NCc1cccc(-c2cn3ncnc3c(NC34CC(C3)C4)n2)c1 [F.1.1] | 100 to 1000 nM
C=CC(=O)N1CC[C@H](c2cc(Nc3cc4n(n3)CCOC4)c3ncnn3c2)C1 [Example 4, 1-{(R)-3-[8-(6,7-Dihydro-4H-pyrazolo[5,1-c][1,4]oxazin-2-ylamino)-[1,2,4]triazolo[1,5-a]pyridin-6-yl]-pyrrolidin-1-yl}-propenone] | < 100 nM
C=CC(=O)N1CC[C@@H](c2cn3ncnc3c(Nc3cnn(C)c3)n2)C1 (single isomer, unassigned) [Example F1.25] | 1000 to 50000 nM
C=CC(=O)N1CC[C@H](c2cc(Nc3ccn(C)n3)c3ncnn3c2)C1 [F.1.38, (R)-1-(3-(8-((1-methyl-1H-pyrazol-3-yl)amino)-[1,2,4]triazolo[1,5-a]pyridin-6-yl)pyrrolidin-1-yl)prop-2-en-1-one] | < 100 nM
Cn1ccc(Nc2cc(C3CCN(C#N)C3)cn3ncnc23)n1 (stereo not shown) [I.1, 3-(8-((1-methyl-1H-pyrazol-3-yl)amino)-[1,2,4]triazolo[1,5-a]pyridin-6-yl)pyrrolidine-1-carbonitrile] | 100 to 1000 nM
Cn1ccc(Nc2cc([C@H]3CCC[C@H](NC#N)C3)cn3ncnc23)n1 [I.1.4, N—((1S,3S)-3-(8-((1-methyl-1H-pyrazol-3-yl)amino)-[1,2,4]triazolo[1,5-a]pyridin-6-yl)cyclohexyl)cyanamide] | 100 to 1000 nM
C=CC(=O)N[C@H]1CC[C@@H](c2cc(Nc3cc4n(n3)CCOC4)c3ncnn3c2)C1 (single isomer, unassigned) [Example 8 (1S,3R)] | < 100 nM
C=CC(=O)N[C@@H]1CC[C@H](c2cc(Nc3ccc(N4CCOCC4)cn3)c3ncnn3c2)C1 (single isomer, unassigned) [Example 9 (1R,3S)] | < 100 nM
C=CC(=O)N1CCCC(c2cc(Nc3ccn(C)n3)c3ncnn3c2)C1 (stereo not shown) [F.1.21, 1-(3-(8-((1-methyl-1H-pyrazol-3-yl)amino)-[1,2,4]triazolo[1,5-a]pyridin-6-yl)piperidin-1-yl)prop-2-en-1-one] | 100 to 1000 nM
C=CC(=O)N[C@@H]1CCC[C@H](c2cc(Nc3ccn(C)n3)c3ncnn3c2)C1 [Example F1.35] | < 100 nM

Compound | IC50
C=CC(=O)Nc1ccccc1-c1cn2ncnc2c(NC23CC(C2)C3)n1 [F.1.3] | 1000 to 50000 nM
C=CC(=O)Nc1cccc(-c2cn3ncnc3c(NC34CC(C3)C4)n2)c1 [F.1.2] | 100 to 1000 nM
C=CC(=O)N1CCC[C@@H](c2cc(Nc3cc4n(n3)CCOC4)c3ncnn3c2)C1 (single isomer, unassigned) [Example F1.24] | 1000 to 50000 nM
C=CC(=O)N1CCCC(c2cc(Nc3nc(C(C)C)no3)c3ncnn3c2)C1 (stereo not shown) [Example F1.31, 1-(3-(8-((3-isopropyl-1,2,4-oxadiazol-5-yl)amino)-[1,2,4]triazolo[1,5-a]pyridin-6-yl)piperidin-1-yl)prop-2-en-1-one] | 1000 to 50000 nM
C=CC(=O)N1CC[C@@H](c2cn3ncnc3c(Nc3ccc(OC)c(OC)c3)n2)C1 [F.1.112] | 1000 to 50000 nM
C=CC(=O)N1CCC(c2cn3ncnc3c(Nc3cnn(C)c3)n2)C1 (stereo not shown) [F.1.22, 1-(3-(8-((1-methyl-1H-pyrazol-4-yl)amino)-[1,2,4]triazolo[1,5-a]pyrazin-6-yl)pyrrolidin-1-yl)prop-2-en-1-one] | < 100 nM
C=CC(=O)N[C@H]1CCC[C@H](c2cc(Nc3ccn(C)n3)c3ncnn3c2)C1 [Example F1.36] | 100 to 1000 nM
C=CC(=O)N[C@H]1CC[C@@H](c2cc(Nc3ccc(N4CCOCC4)cn3)c3ncnn3c2)C1 (single isomer, unassigned) [Example 9 (1S,3R)] | 100 to 1000 nM
C=CC(=O)N1CCC(c2cn3ncnc3c(Nc3ccc4c(c3)NC(=O)CC4)n2)C1 (stereo not shown) [F.1.13, 7-((6-(1-acryloylpyrrolidin-3-yl)-[1,2,4]triazolo[1,5-a]pyrazin-8-yl)amino)-3,4-dihydroquinolin-2(1H)-one] | 100 to 1000 nM
Cn1cc(Nc2nc(C3CCN(C#N)C3)cn3ncnc23)cn1 (stereo not shown) [I.1.2] | 100 to 1000 nM
C=CC(=O)N1CCCC(c2cc(Nc3cc4n(n3)CCOC4)c3ncnn3c2)C1 (stereo not shown) [Example F1.30, 1-(3-(8-((6,7-dihydro-4H-pyrazolo[5,1-c][1,4]oxazin-2-yl)amino)-[1,2,4]triazolo[1,5-a]pyridin-6-yl)piperidin-1-yl)prop-2-en-1-one] | 100 to 1000 nM
C=CC(=O)N[C@@H]1CC[C@H](c2cc(Nc3ccn(C)n3)c3ncnn3c2)C1 (single isomer, unassigned) [Example 7] | < 100 nM
C=CC(=O)N1CCC[C@H](c2cc(Nc3cc4n(n3)CCOC4)c3ncnn3c2)C1 (single isomer, unassigned) [Example 5] | < 100 nM
C=CC(=O)N1CCC(c2cn3ncnc3c(Nc3ccc(OC)c(OC)c3)n2)C1 (stereo not shown) [F.1.8] | 100 to 1000 nM
C=CC(=O)N1CCCC(c2cn3ncnc3c(Nc3ccc4c(c3)NC(=O)CCC4)n2)C1 (stereo not shown) [F.1.4, 8-((6-(1-acryloylpiperidin-3-yl)-[1,2,4]triazolo[1,5-a]pyrazin-8-yl)amino)-4,5-dihydro-1H-benzo[b]azepin-2(3H)-one] | < 100 nM
C=CC(=O)N1CC[C@H](c2cn3ncnc3c(Nc3cnn(C)c3)n2)C1 (single isomer, unassigned) [Example 6] | < 100 nM
C=CC(=O)N1CC[C@@H](c2cc(Nc3ccn(C)n3)c3ncnn3c2)C1 [Example F1.37, (S)-1-(3-(8-((1-methyl-1H-pyrazol-3-yl)amino)-[1,2,4]triazolo[1,5-a]pyridin-6-yl)pyrrolidin-1-yl)prop-2-en-1-one] | 1000 to 50000 nM
C=CC(=O)N1CC[C@H](c2cn3ccnc3c(Nc3ccc4c(c3)NC(=O)CCC4)n2)C1 [F.1.10, (S)-8-((6-(1-acryloylpyrrolidin-3-yl)imidazo[1,2-a]pyrazin-8-yl)amino)-4,5-dihydro-1H-benzo[b]azepin-2(3H)-one] | 100 to 1000 nM
Cn1ccc(Nc2cc(C3CCCN(C#N)C3)cn3ncnc23)n1 (stereo not shown) [I.1.1, 3-(8-((1-methyl-1H-pyrazol-3-yl)amino)-[1,2,4]triazolo[1,5-a]pyridin-6-yl)piperidine-1-carbonitrile] | 100 to 1000 nM
C=CC(=O)Nc1cccc(-c2cn3ncnc3c(Nc3ccc4c(c3)NC(=O)CCC4)n2)c1 [F.1.5, N-(3-(8-((2-oxo-2,3,4,5-tetrahydro-1H-benzo[b]azepin-8-yl)amino)-[1,2,4]triazolo[1,5-a]pyrazin-6-yl)phenyl)acrylamide] | < 100 nM
C=CC(=O)N1CCC(c2cc(Nc3ccc4c(c3)NC(=O)CCC4)c3ncnn3c2)C1 (stereo not shown) [F.1.15, 8-((6-(1-acryloylpyrrolidin-3-yl)-[1,2,4]triazolo[1,5-a]pyridin-8-yl)amino)-4,5-dihydro-1H-benzo[b]azepin-2(3H)-one] | 100 to 1000 nM
